Reference: paper PMC10591057 (Cell Reports Medicine, 2023)

Test system: CNV lesions
Assay: NHP laser-induced CNV, fluorescein angiography lesion grading
Type: in vivo, Chlorocebus sabaeus
Settings: single ITV 1 mg Aflibercept

## aflibercept: current standard of care anti-VEGF, single ITV administration of 1 mg
  incidence of grade IV lesions, Myr-EBIN vs aflibercept groups: no significant difference
